Measurements from patent publication US8093393B2, “Cationic ceramides, and analogs thereof, and their use for preventing or treating cancer” (MUSC Foundation for Research Development, priority 2004, dated 2012).
In brackets after ≈: the same amount, converted by molar mass. Several values for one entry are separate records, joined by “and”; a condition that tells them apart may be missing. Equal values may be shown once. Read-outs that look alike come from different tables or passages of the source. Each block holds one compound with its values, some of them ahead of it.

How the values were obtained:
UM-SCC-22A cells = assay: MTT cell survival assay and isobologram studies; type: cell-based, human
[1] = mice; cited from earlier work
[2] = Solubility of ceramides and ceramidoids in water
[3] = system: MCF7 breast carcinoma cells; assay: Cell proliferation and viability, Trypan blue exclusion assay; type: cell-based; settings: for IC50: 48 h treatment, read-out: IC50, inhibitory effect on MCF7 cell growth
Method: FIGS. 5A-5F show the dose dependent effects of CCPS analogs on survival of MCF7 breast carcinoma cells in comparison to the activity of D-e-C6-ceramide, which is commonly used as a model of ceramide action. Cell proliferation and cell viability were determined by Trypan blue exclusion assay. These assays were performed using duplicate samples in two or three independent experiments.
Cell Proliferation: Cells were seeded into plates at a density of approx. 50% corresponding to 1×10^6 cells, in 10 ml of 10% FCS and after an over night incubation the cells were treated with LCL compounds at concentration 0-20 μM in ethanol (ethanol level was kept below 0.1%) and the changes in cell numbers after 48 h were determined and expressed as a percentage of the untreated controls.
Briefly, media was removed, cells were washed twice with PBS, detached using 1% Trypsin and centrifuged at 800 rpm. Cell pellets were resuspended in PBS and Trypan blue (Sigma Chemicals, St. Louis, Mo., USA) was added (1:1 dilution). Under light microscope, the percentage of unstained and stained cells was assessed.
To examine the anticancer activity of CCPS analogs of the invention, their inhibitory effect on MCF7 breast carcinoma cells were analyzed and compared to the activity of D-e-C6-ceramide, which is commonly used as a model of action for ceramides. Cell proliferation and cell viability were determined by Trypan blue exclusion assay.

[4] = system: isolated rat liver mitochondria; assay: Mitochondrial permeabilization (ΔΨ, large-amplitude swelling); settings: for mitochondrial large-amplitude swelling (in words): 60 μM
[5] = system: isolated rat liver mitochondria; assay: Accumulation / binding in isolated mitochondria; settings: at 4 min
Method: FIG. 16. […] Bar 2 and 4 (+FCCP), ΔΨ was dissipated by addition of FCCP at 1 μM plus antimycin A at 0.5 μg/mg protein from the beginning of the experiment. Results are expressed as mean+SEM of n=3, *p=0.01 versus control.
FIG. 23. […] Trace 3 was corrected for the absorbance of TMRM.
Preparation of mitochondria from rat liver.
Mitochondrial incubation medium.
Analysis of ceramides by mass spectroscopy (MS).

MCF7 cells = settings: 5 μM
Method: FIGS. 4A-4C show the cellular levels of CCPS analogs. MCF 7 cells were treated with 5 μM concentration of CCPS analogs over the time and cellular level of the nonmetabolized CCPSs was measured by MS methodology as shown under Experimental. Results are expressed as % of concentration applied.
A parallel set of cells was used to determine cell proliferation and to prepare lipid extracts for MS analysis.
Briefly, for the indicated points, media was removed, cells were washed twice with PBS, scraped into cold PBS (2×1.0 ml), transferred to glass vials and centrifuged for 5 min at 800 rpm. Cell pellets corresponding to ˜1×10^6 cells, were fortified with the internal standards IS (C17 base D-erythro-sphingosine: 17Sph, C17 sphingosine-1-phosphate: 17Sph-1P, N-palmitoyl-D-erythro-C13 sphingosine: 13CC16-Cer and N-heptadecanoyl-D-erythro-C17shingosine: 17CC17-Cer) and extracted (2×2 ml) into a one-phase solvent system with ethyl acetate/iso-propanol/water (60/30/10 v/v). One ml of this extract was used for Pi determination after lipid re-extraction by the Bligh and Dyer method. Remaining lipid extract was evaporated, reconstituted in 100 μl of methanol, and samples were injected on the Surveyor/TSQ 7000 LC/MS system and gradient eluted from the BDS Hypersil C8, 150×3.2 mm, 3 μm particle size column, with 1.0 mM methanolic ammonium formate/2 mM aqueous ammonium formate mobile phase system. Peaks corresponding to the target analytes and IS were collected and processed using the Xcalibur software system.
Cellular level of CCPS analogs was established by MS methodology.

[6] = aqueous conditions at pH 4.5, 7.5 and 8.5 over 48 hrs
[7] = Homo sapiens, read-out: IC50 of chemotherapeutic agents
[8] = UM-SCC-22A, 48 hr, read-out: IC50, cell growth
[9] = UM-SCC-22A, 96 hr, DMEM, read-out: IC50, cell growth
[10] = Homo sapiens, UM-SCC-22A, MTT, read-out: IC50 of chemotherapeutic agents

Compound: O=c1[nH]cc(F)c(=O)[nH]1 [5-FU, 5-fluorouracil, reference compound]
IC50 (UM-SCC-22A cells; [7]): 1000 to 100000 nM
MTD of reference drugs (known) [1]: 25 mg/kg

Solubility at 37° C. [2]: 0.01 mg/mL (≈ 29.3 µM)
Solubility at 37° C. ([mM]) [2]: (0.029) mM
Compound: CCCCCCCCCCCCC/C=C/[C@@H](O)[C@H](CO)NC(C)=O [C2-Cer, D-erythro-C2-ceramide, reference compound]
inhibitory effect on MCF7 cell growth (in words) ([3]; 48 h): inactive

Solubility at 37° C. [2]: 0.0003 mg/mL (≈ 0.558 µM)
Solubility at 37° C. ([mM]) [2]: (0.0005) mM
Compound: CCCCCCCCCCCCC/C=C/[C@@H](O)[C@H](CO)NC(=O)CCCCCCCCCCCCCCC [C16-Cer, D-erythro-C16-ceramide, reference compound]

Compound: N.N.[Cl][Pt][Cl] [CSP, cisplatinum]
MTD of reference drugs (known) [1]: 9 mg/kg

Compound: COc1cccc2c1C(=O)c1c(O)c3c(c(O)c1C2=O)C[C@@](O)(C(C)=O)C[C@@H]3O[C@H]1C[C@H](N)[C@H](O)[C@H](C)O1 [DNR, daunorubicin, reference compound]
IC50 (UM-SCC-22A cells; [7]): 100 to 250 nM

Compound: COc1cccc2c1C(=O)c1c(O)c3c(c(O)c1C2=O)C[C@@](O)(C(=O)CO)C[C@@H]3O[C@H]1C[C@H](N)[C@H](O)[C@H](C)O1 [DOX, doxorubicin]
IC50 (UM-SCC-22A cells; [7]): 100 to 250 nM
MTD of reference drugs (known) [1]: 1 to 2 mg/kg and 2 mg/kg

Compound: CCCCCCCCCCCCC/C=C/[C@H](O)[C@H](CO)NC(=O)CCCCCCCCCCCCCCC[n+]1ccccc1.[Br-] [LCL87, L-threo-2-N-[16′-(1″-Pyridinium)-hexadecanoyl]-sphingosine Bromide]
inhibitory effect on MCF7 cell growth (in words) ([3]; 48 h): similar, concentration dependent (1.0-10.0 μM) inhibitory effect on cell growth
IC50 (UM-SCC-22A cells; [8]): ~1000 nM
IC50 (UM-SCC-22A cells; [9]): ~300 nM

Compound: CCCCCCCCCCCCCC=CC(O)C(CO)NC(=O)CCCCCCCCCCC[n+]1ccccc1 (stereo not shown) [LCL89]
IC50 (UM-SCC-22A cells; [8]): ~1000 nM
IC50 (UM-SCC-22A cells; [9]): ~300 nM

Compound: CCCCCCCCCCCCCCC[C@@H](O)[C@H](CO)NC(=O)CCCCC[n+]1ccccc1.[Br-] [LCL143, D-erythro-2-N-[6′-(1″-Pyridinium)-hexanoyl]-4,5-dihydrosphingosine Bromide]
lag period of the induction of mitochondrial swelling versus C6-pyridinium-ceramide ([4]; 30 μM): three fold increase in the lag period
binding to mitochondria ([5]; 30 μM): 9.8±0.7 nmol/mg protein
IC50 [3]: 5 µM and 5.02 µM
Intracellular level, % of concentration applied (MCF7 cells; 1 h): 15%
Cellular level, % of concentration applied (MCF7 cells; 5 h): 13%
Cellular level, % of concentration applied (MCF7 cells; 24 h): 35%

Compound: CCCCCCCCCCCCC/C=C/[C@@H](O)[C@H](CO)NC(=O)C[n+]1ccccc1.[Br-] [LCL150, D-erythro-2-N-[2′-(1″-Pyridinium)-acetyl]-sphingosine Bromide]
effect on ΔΨ and mitochondrial swelling (in words) ([4]; 40 μM): only minor changes in the magnitude of mitochondrial swelling and the value of ΔΨ
mitochondrial large-amplitude swelling (in words) [4]: failed to induce the same degree of swelling
binding to mitochondria ([5]; 60 μM): 29.8 nmol/mg protein
IC50 [3]: 8 µM
effect on cell growth (in words) (UM-SCC-22A cells; UM-SCC-22A, 96 hr): did not exert a significant effect on cell growth
Cellular level, % of concentration applied (MCF7 cells; 5 h): ~17%
Cellular level, % of concentration applied (MCF7 cells; 24 h): 50%
Stability (decomposition) by MS [6]: no evidence of their decomposition

IC50 [3]: ~4 µM
Compound: CCCCCCCCCCCCC/C=C/[C@@H](O)[C@H](CO)NC(=O)CCCCC[n+]1ccc(C=Cc2ccc(N(C)C)cc2)cc1 [LCL186, D-erythro-2-N-[6′-[1″-[4′″-[(4″″-N,N-Dimethylamino)styryl]-pyridinium]-hexanoyl]]-sphingosine Bromide]

Solubility at 22° C. [2]: 62 mg/mL
Solubility at 22° C. ([mM]) [2]: (103) mM
Solubility at 37° C. [2]: 120 mg/mL
Solubility at 37° C. ([mM]) [2]: (200) mM
IC50 ([3]; listed as LCL-275): 15 µM
IC50 [3]: ~20 µM
Compound: CCCCCCCCCCCCC/C=C/[C@@H](O)[C@H](CO)NC(=O)c1ccc[n+](CCCCCCCC)c1.[Br-] [LCL275, D-erythro-2-(1′-Octylnicotinoyl)-sphingosine Bromide]

IC50 ([3]; listed as LCL-277): 13 µM
IC50 [3]: 8.5 µM
Compound: CCCCCCCCCCCCC/C=C/[C@@H](O)[C@H](CO)NC(=O)CCc1ccc[n+](CCCC)c1 [LCL277, D-erythro-2-N-[3′-[3″-(1″-Butyl)-pyridinium]-propionoyl]-sphingosine Bromide]

Compound: CCCCCCCCCCCCCCC[C@@H](O)[C@H](CO)NC(=O)C[n+]1ccccc1.[Br-] [LCL319, D-erythro-2-N-[2′-(1″-Pyridinium)-acetyl]-4,5-dihydrosphingosine Bromide]
Solubility at 22° C. [2]: 0.9 mg/mL
Solubility at 22° C. ([mM]) [2]: (1.8) mM
Solubility at 37° C. [2]: 45 mg/mL
Solubility at 37° C. ([mM]) [2]: (90) mM
inhibition of MCF7 cell growth ([3]; 10 μM, 48 h): 15%
IC50 [3]: 12.5 µM
Cellular level, % of concentration applied (MCF7 cells; 5 h): 27%
Cellular level, % of concentration applied (MCF7 cells; 24 h): 52%

Compound: CN(Cc1cnc2nc(N)nc(N)c2n1)c1ccc(C(=O)N[C@@H](CCC(=O)O)C(=O)O)cc1 [MTX, methotrexate, reference compound]
IC50 (UM-SCC-22A cells; [10]): 100 to 250 nM

Compound: CC(=O)O[C@H]1C(=O)[C@@]2(C)[C@H]([C@H](OC(=O)c3ccccc3)[C@]3(O)C[C@H](OC(=O)[C@H](O)[C@@H](NC(=O)c4ccccc4)c4ccccc4)C(C)=C1C3(C)C)[C@]1(OC(C)=O)CO[C@@H]1C[C@@H]2O [PAX, paclitaxel, reference compound]
IC50 (UM-SCC-22A cells; [10]): 1000 to 100000 nM

Compound: COC(=O)c1ccccc1-c1c2ccc(=[N+](C)C)cc-2oc2cc(N(C)C)ccc12 [TMRM, reference compound]
mitochondrial large-amplitude swelling (in words) [4]: fail to induce large-amplitude swelling
binding to mitochondria ([5]; 60 μM): 50±2.6 nmol/mg protein

Compound: c1ccc([P+](c2ccccc2)(c2ccccc2)c2ccccc2)cc1 [TPP^+, reference compound]
mitochondrial large-amplitude swelling (in words) [4]: fail to induce large-amplitude swelling

Compound: CCCCCCCCCCCCCCCC[n+]1ccccc1 [cetylpyridinium bromide, Cetylpyridinium bromide (CPB) monohydrate, reference compound]
mitochondrial large-amplitude swelling (in words) [4]: only moderate mitochondrial swelling

Compound: D-threo-2-N-[6′-(1″-Pyridinium)-hexanoyl]-sphingosine Bromide [LCL272]
inhibitory effect on MCF7 cell growth (in words) ([3]; 48 h): caused inhibitory effect on MCF7 cell growth

Compound: L-erythro-2-N-[6′-(1″-Pyridinium)-hexanoyl]-sphingosine Bromide [LCL187]
inhibitory effect on MCF7 cell growth (in words) ([3]; 48 h): caused inhibitory effect on MCF7 cell growth
